Test [1] has as its system Burkholderia cepacia (ATCC 25416). Put plainly: MIC determination, microbroth dilution. Type of test: cell-based. The following applies: Burkholderia cepacia. Background: In broth dilution the organism is exposed to a series of concentrations in liquid medium.
For test [2], the system named is Proteus vulgaris (ATCC 33420). Kind of test: MIC determination, microbroth dilution. The following applies: ATCC33420. Type of test: cell-based.
The test system of test [3] is Stenotrophomonas maltophilia (ATCC 13637). Put plainly: MIC determination, microbroth dilution. Type of test: cell-based. The following applies: ATCC13637; Stenotrophomonas maltophilia (ATCC 13637); read-out: MIC S.m.
In test [4] the test system is Haemophilus influenza (ATCC 49247). Kind of test: microbe, parasite or virus in culture. Type of test: cell-based. The following applies: ATCC49247; Haemophilus influenza; 4 μg per disc; range of at least two experiments; read-out: Zone of inhibition H.i.
Test [5] has as its system Escherichia coli (ATCC 700926). Kind of test: MIC determination, microbroth dilution. In kind it is cell-based. The following applies: ATCC700926; Escherichia coli (ATCC 700926); read-out: MIC E.c.
The subject of test [6] is Staphylococcus aureus (ATCC 29213). Kind of test: MIC determination, microbroth dilution. Type of test: cell-based. The following applies: ATCC29213; Staphylococcus aureus (ATCC 29213); read-out: MIC S.a.
The next test concerns Listeria monocytogenes. Kind of test: MIC determination (Table 6). Type of test: cell-based.
For test [7], the system named is Neisseria gonorrhoeae (ATCC 49226). Put plainly: Disc diffusion assay. Type of test: cell-based. The following applies: ATCC49226, 4 μg per disc, read-out: Zone of inhibition N.g. In general terms: A growth-free zone around the sample is the usual read-out of agar diffusion tests.
Test [8] concerns Streptococcus pneumoniae (R6). Put plainly: MIC determination, microbroth dilution. In kind it is cell-based. The following applies: Streptococcus pneumoniae (R6); read-out: MIC S. pn.
In test [9] the test system is Pseudomonas aeruginosa (PA01). Kind of test: MIC determination, microbroth dilution. In kind it is cell-based.
The subject of test [10] is acinetobacter baumannii (ATCC 19606). Kind of test: MIC determination, microbroth dilution. In kind it is cell-based. The following applies: ATCC19606.
For test [11], the system named is M. tuberculosis clinical isolates. Put plainly: microbe, parasite or virus in culture. In kind it is cell-based. The following applies: Mycobacterium tuberculosis, H37RV, read-out: MIC H37Rv.
The test system of test [12] is MRSA, Staphylococcus aureus (NRS70). Put plainly: MIC determination, microbroth dilution. Type of test: cell-based. The following applies: Staphylococcus aureus (NRS70); read-out: MIC MRSA.
For test [13], the system named is Enterococcus faecalis (ATCC 33186). Kind of test: MIC determination, microbroth dilution. Type of test: cell-based. The following applies: ATCC33186; Enterococcus faecalis (ATCC 33186); read-out: MIC E.f.
Test [14] concerns Bacillus anthracis, Sterne 34F2. Put plainly: microbe, parasite or virus in culture. In kind it is cell-based. The following applies: STERNE34F2, read-out: MIC B.a.
In another test the test system is Moraxella catarrhalis. Kind of test: MIC determination (Table 6). In kind it is cell-based.
Test [15] has as its system Bacillus subtilis (ATCC 23857). Kind of test: MIC determination, microbroth dilution. The following applies: ATCC23857; Bacillus subtilis (ATCC 23857); read-out: MIC B.s. In kind it is cell-based.
In the next test the test system is Yersinia pestis. Put plainly: microbe, parasite or virus in culture. Type of test: cell-based. The following applies: read-out: MIC Y.p.
Test [16] has as its system Neisseria gonorrhoeae (ATCC 49226). Kind of test: Agar MIC determination (Alamar Blue). In kind it is cell-based. The following applies: ATCC49226, agar MIC, read-out: MIC N.g.
Test [17] relates to Proteus mirabilis (ATCC 25933). Put plainly: MIC determination, microbroth dilution. In kind it is cell-based. The following applies: ATCC25933.
Test [18] concerns Streptococcus pyogenes (ATCC 700294). Put plainly: MIC determination, microbroth dilution. In kind it is cell-based. The following applies: ATCC700294; Streptococcus pyogenes (ATCC 700294); read-out: MIC S. py.
Test [19] concerns Neisseria meningitides (ATCC 13077). Kind of test: Disc diffusion assay. Type of test: cell-based. The following applies: ATCC13077, 4 μg per disc, read-out: Zone of inhibition N.m.
The test system of test [20] is Klebsiella pneumoniae (ATCC 33495). Kind of test: MIC determination, microbroth dilution. The following applies: ATCC33495. Type of test: cell-based.
The next test deals with Bacillus anthracis. Kind of test: microbe, parasite or virus in culture. In kind it is cell-based. The following applies: read-out: MIC B.a.
For a further test, the system named is E. coli K12 ΔtolC. Kind of test: microbe, parasite or virus in culture. Type of test: cell-based. The following applies: Escherichia coli, read-out: MIC E.c. Δtolc.
Test [21] concerns gram-positive and gram-negative bacteria. In kind it is cell-based.
The subject of a further test is S. pneumoniae. Put plainly: Resistance frequency determination and cross resistance of spontaneous mutants. In kind it is cell-based, Streptococcus pneumoniae. The following applies: cross resistance testing of 2 mutants.
A further test deals with S. pneumoniae D39x. Kind of test: Mouse challenge, mouse model of lung infection. Type of test: in vivo. The following applies: 72 hours post challenge. The protocol: Mice were treated with a 5 mg/kg dose b.i.d. of spectinomycin (indicated as “SPC” in the figure) or compound 2 (the compound number refers to the compound number and associated structure shown in Table 1), or vehicle. (Panel B) The bacterial burden of mice at 18 hours post-challenge with S. pneumoniae D39x. (Panel C) Representative bioluminescent images of mice at 72 hours post challenge.
All experimental animal protocols were approved by the St. Jude Children's Research Hospital Institutional Animal Care and Use Committee. Seven week old, female BalbC/J mice (Jackson Labs, Bar Harbor, Me.) we utilized in these studies. All mice were maintained in BSL2 facilities and all experiments were done under inhaled isoflurane (2.5%). Bacteria (strain D39x) were introduced by intranasal administration of 2×10^7 CFU in 25 μL PBS. Mice received no treatment, plasmalyte A (vehicle control), ampicillin (100 mg/kg), spectinomycin (50, 25, 5 mg/kg) or the respective compounds (50, 25, 5 mg/kg) at dosages indicated. Antibiotics were administered in a volume of 100 μL by subcutaneous […] starting at 18 hours post challenge, a time point when the mice have developed pneumonia and bacteria have translocated into the bloodstream. Mice were subsequently dosed every 12 hours until 96 hours post challenge. Mice were monitored daily for signs of infection and weight loss. Differences in time to death were compared via Kaplan-Meier survival estimates. Bacterial density in blood was quantified at 24, 48, 72, and 96 hours post infection via blood collection, serial dilution, and plating. Groups were then compared by Mann-Whitney to determine statistical significance. At 8 days following challenge, surviving mice were euthanized and bacterial loads in lungs determined by homogenization followed by serial dilution and plating. In all instances, surviving mice had completely cleared bacteria from both the lungs and the bloodstream by this time point.
Compound 2 was tested for anti-pneumococcal activity in mice as described above. […]

The values below come from patent US10266544B2, “Aryl substituted aminomethyl spectinomycin analogs as antibacterial agents” (ST. JUDE CHILDREN'S RESEARCH HOSPITAL, INC., priority 2013, dated 2019).

Where a name gives a salt, the structure may show the parent alone. Read-outs that look alike come from different tables or passages of the source.

In general, zone of inhibition refers to the size of the clear area around the sample on an inoculated plate. For the molecule `CN[C@@H]1[C@H](O)[C@H](NC)[C@H]2O[C@]3(O)[C@H](O[C@@H]2[C@H]1O)O[C@H](C)C[C@@]3(O)CNCCCc1ccccc1` [compound 13, 3′-(R)-3′-(phenylpropylaminomethyl)dihydrospectinomycin Trihydrochloride], the MIC in test [1] (ATCC25416, read-out: MIC B.c., Burkholderia cepacia (ATCC 25416)) was greater than 200 µg/mL; in [1] (ATCC25416, read-out: MIC B.c., Burkholderia cepacia, Table 6), greater than 200 µg/mL; in [2], no less than 200 µg/mL; in [3], 6.3 to 12.5 µg/mL; in test [5] it was 12.5 µg/mL; in [6], 12.5 µg/mL. Further, the MIC in the test with Listeria monocytogenes was 1.6 to 3.1 µg/mL; in test [8], 3.1 µg/mL; in test [9] it was 200 µg/mL; in [10], greater than 200 µg/mL; in test [11], 3.1 µg/mL; in test [12], 12.5 to 25 µg/mL. In addition, the MIC was 6.3 µg/mL in test [13]; 3.1 to 6.3 µg/mL in test [14]; 0.4 µg/mL against Moraxella catarrhalis; 6.3 µg/mL in test [15]; 50 µg/mL in the test with Yersinia pestis; 12.5 to 25 µg/mL in [16]. The MIC in test [17] was greater than 200 µg/mL; in test [18], 3.1 µg/mL; in [20], 50 µg/mL; with Bacillus anthracis, 3.1 to 6.3 µg/mL; in the test on E. coli K12 ΔtolC, 6.3 µg/mL. The zone of inhibition at 4 µg/disc worked out at 14 mm in test [4], 15 mm in test [7] and 21 mm in test [19]. In addition, the “MIC relative to parent SPC” value in test [21] was ~10 % of parent SPC.
Take `CC[C@H]1OC(=O)[C@H](C)[C@@H](O[C@H]2C[C@@](C)(OC)[C@@H](O)[C@H](C)O2)[C@H](C)[C@@H](O[C@@H]2O[C@H](C)C[C@H](N(C)C)[C@H]2O)[C@](C)(O)C[C@@H](C)C(=O)[C@H](C)[C@@H](O)[C@]1(C)O` [erythromycin]: the “susceptibility of mutants resistant to 2” value with S. pneumoniae is reported as “susceptible”.
As to `CC(=O)NC[C@H]1CN(c2ccc(N3CCOCC3)c(F)c2)C(=O)O1` [linezolid], the “susceptibility of mutants resistant to 2” value in the test on S. pneumoniae is reported as “susceptible”.
Turning to `C[C@@H](O)[C@H]1C(=O)N2C(C(=O)O)=C(S[C@@H]3CN[C@H](C(=O)N(C)C)C3)[C@H](C)[C@H]12` [meropenem], the “susceptibility of mutants resistant to 2” value in the test with S. pneumoniae is given as “susceptible”.
Turning to `CN[C@@H]1[C@H](O)[C@H](NC)[C@H]2O[C@@]3(O)C(=O)C[C@@H](C)O[C@H]3O[C@@H]2[C@H]1O` [spectinomycin], the “bioluminescent images of mice” value in the test on S. pneumoniae D39x is on record as “systemic bacterial infection”. In addition, in the test with S. pneumoniae, the “susceptibility of mutants resistant to 2” value is on record as “cross resistance”.
Regarding `CN[C@H](CC(C)C)C(=O)N[C@H]1C(=O)N[C@@H](CC(N)=O)C(=O)N[C@H]2C(=O)N[C@H]3C(=O)N[C@H](C(=O)N[C@H](C(=O)O)c4cc(O)cc(O)c4-c4cc3ccc4O)[C@H](O)c3ccc(c(Cl)c3)Oc3cc2cc(c3O[C@@H]2O[C@H](CO)[C@@H](O)[C@H](O)[C@H]2O[C@H]2C[C@](C)(N)[C@H](O)[C@H](C)O2)Oc2ccc(cc2Cl)[C@H]1O` [vancomycin], in the test on S. pneumoniae, the “susceptibility of mutants resistant to 2” value is listed as “susceptible”.
